Experimental findings from patent publication US7569661B2, “Polypeptide scaffolds and use thereof” (Modpro AB, priority 2002, dated 2009) are described below.

The target of test [1] is T1, human carbonic anhydrase II, HCAII (Homo sapiens, UniProt P00918). Briefly: Surface plasmon resonance-based steady state affinity, immobilized HCAII. The following applies: 1:1 binding model, peptide 40 nM to 10 μM. The protocol: [Taylor, P. W.; King, R. W.; Burgen, A. S. V. Biochemistry 1970, 9, 2638-2645] […] Lond. B 1976, 193, 107-125]. […] 1.4 equivalents of Id were allowed to react with 1 equivalent of KE2-P or KE3-P in 50 mM Tris-HCl buffer at pH 8.0 and room temperature.

For test [2], the target named is T1, human carbonic anhydrase II, HCAII. Briefly: Fluorescence emission spectra of dansyl-labelled peptides in absence and presence of HCAII. It counts as binding. The following applies: 1 μM peptide, 50 μM HCAII, 10 mM HBS buffer pH 7.4, 298 K, excitation 335 nm.
Protocol: Dotted lines represent spectra in the absence of HCAII, solid lines represent spectra where 50 μM HCAII has been added.
Spectra were recorded of 1 μM peptide solutions in 10 mM HBS buffer at pH 7.4 and 298 K, in the absence and presence of 50 μM HCAII, with 1 μM solutions of KE2-P and KE3-P as negative controls, FIG. 2.

No end group written: not given here. *: point of attachment. Dansyl = CN(C)c1cccc2c(S(=O)(=O)*)cccc12

As for `NS(=O)(=O)c1ccc(C(=O)NCCCCCC(=O)O)cc1` [Ic], the Kd in test [1] was 44 nM.

Consider “KE3-P: KE3 with dansyl fluorescent probe at the side chain of Lys15; control without ligand (NAADLEAKIRHLAEK(Dansyl)LAARGPCDAAQLAEQLARRFEAFARAG)”, for which the “increase of fluorescence intensity upon addition of HCAII” value in test [2] is “not affected”.

Broadly, the Kd is a measure of binding affinity in units of concentration. Low readings indicate higher affinity, high ones lower affinity.
